{"source": "patent US5180716A", "about": "“Cyclodextrin complexes for neuraxial administration of drugs” (The Regents of the University of California, priority 1990, dated 1993)", "key": {"[1]": {"settings": "guinea pig, in vivo"}, "[2]": {"settings": "rat, in vivo"}, "[3]": {"settings": "dog, in vivo"}, "[4]": {"system": "calcitonin gene-related peptide (CGRP)", "settings": "rat, in vivo", "protocol": "(§1) Lumbar intrathecal injections--rats: Rats (250-350 gm) were prepared with chronic intrathecal catheters placed in the lumbar intrathecal space. They received intrathecal administration of 15 μl of 25% CDEX. […] At 7 days, the levels of neuropeptides substance P and calcitonin gene-related peptide (CGRP) were measured after extraction of tissue, using radioimmunoassays."}, "substance P": {"system": "substance P", "settings": "rat, in vivo", "protocol": "as §1"}, "[5]": {"settings": "oral administration; cited from earlier work"}}, "data": [{"molecule": "2-hydroxypropyl-β-cyclodextrin [CDEX]", "values": [{"measurement": "acute behavioral signs of agitation (irritation)", "setting": "[1]", "value": "no acute behavioral signs of agitation"}, {"measurement": "motor function (placing, stepping and righting reflexes or ambulatory tests)", "setting": "[1]", "value": "no changes"}, {"measurement": "urine staining", "setting": "[1]", "value": "No evidence of urine staining"}, {"measurement": "EEG activity", "setting": "[2]", "value": "no effect"}, {"measurement": "general motor behavior", "setting": "[2]", "value": "no effect"}, {"measurement": "bladder function", "setting": "[3]", "value": "no effect"}, {"measurement": "heart rate", "setting": "[3]", "value": "no effect"}, {"measurement": "skin twitch response", "setting": "[3]", "value": "no effect"}, {"measurement": "toxicity", "setting": "[3]", "value": "lack of toxicity"}]}, {"molecule": "C[S+](C)[O-]", "note": "[dimethyl sulfoxide]", "values": [{"measurement": "tissue level of CGRP", "setting": "[4]", "value": "significant reduction"}, {"measurement": "tissue level of substance P", "setting": "substance P", "value": "significant reduction"}]}, {"molecule": "CS(=O)(=O)OCCCCOS(C)(=O)=O", "note": "[Busulfan, busulfan]", "values": [{"measurement": "bone marrow depression", "setting": "[5]", "value": "severe bone marrow depression"}]}]}
